Reference: ChEMBL document CHEMBL3991601, “The target landscape of clinical kinase drugs” (Science, 2017)
Active and inactive are the calls of the source.

Assays:
dCTP pyrophosphatase 1 = biological target: T1, dCTP pyrophosphatase 1 (Homo sapiens, UniProt Q9H773)
T1 sequence (Q9H773 whole entry): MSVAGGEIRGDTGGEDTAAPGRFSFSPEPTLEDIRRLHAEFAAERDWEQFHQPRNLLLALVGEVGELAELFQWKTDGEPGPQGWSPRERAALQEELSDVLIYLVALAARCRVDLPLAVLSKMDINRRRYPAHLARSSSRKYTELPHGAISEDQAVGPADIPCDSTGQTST

[1] = biological target: Inosine-5'-monophosphate dehydrogenase 2 (Homo sapiens, UniProt P12268)
[2] = biological target: T2, ATP-dependent 6-phosphofructokinase, platelet type (Homo sapiens, UniProt Q01813)
T2 sequence (Q01813 whole entry): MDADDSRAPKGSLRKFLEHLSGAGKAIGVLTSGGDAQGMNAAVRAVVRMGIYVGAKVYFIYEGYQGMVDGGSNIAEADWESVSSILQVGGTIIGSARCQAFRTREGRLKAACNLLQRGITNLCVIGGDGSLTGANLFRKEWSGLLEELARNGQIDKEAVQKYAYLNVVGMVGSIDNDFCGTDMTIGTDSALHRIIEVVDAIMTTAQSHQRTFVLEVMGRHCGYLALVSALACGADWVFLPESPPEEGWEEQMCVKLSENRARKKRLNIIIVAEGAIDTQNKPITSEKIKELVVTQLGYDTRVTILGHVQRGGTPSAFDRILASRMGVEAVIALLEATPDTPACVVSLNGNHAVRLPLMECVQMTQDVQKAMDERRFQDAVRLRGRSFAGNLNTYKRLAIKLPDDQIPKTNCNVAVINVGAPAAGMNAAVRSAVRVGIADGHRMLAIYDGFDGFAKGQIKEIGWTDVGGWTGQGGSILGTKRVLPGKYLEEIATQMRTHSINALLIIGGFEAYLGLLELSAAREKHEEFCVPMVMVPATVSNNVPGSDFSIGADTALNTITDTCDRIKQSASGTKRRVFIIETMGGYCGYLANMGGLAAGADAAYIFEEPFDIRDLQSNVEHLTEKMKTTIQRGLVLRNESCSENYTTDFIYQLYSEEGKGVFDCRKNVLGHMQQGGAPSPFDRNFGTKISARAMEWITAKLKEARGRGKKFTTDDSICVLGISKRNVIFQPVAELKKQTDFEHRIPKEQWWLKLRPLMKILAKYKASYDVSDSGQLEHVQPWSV

[3] = biological target: T3, Acyl-CoA dehydrogenase family member 10 (Homo sapiens, UniProt Q6JQN1)
T3 sequence (Q6JQN1 whole entry): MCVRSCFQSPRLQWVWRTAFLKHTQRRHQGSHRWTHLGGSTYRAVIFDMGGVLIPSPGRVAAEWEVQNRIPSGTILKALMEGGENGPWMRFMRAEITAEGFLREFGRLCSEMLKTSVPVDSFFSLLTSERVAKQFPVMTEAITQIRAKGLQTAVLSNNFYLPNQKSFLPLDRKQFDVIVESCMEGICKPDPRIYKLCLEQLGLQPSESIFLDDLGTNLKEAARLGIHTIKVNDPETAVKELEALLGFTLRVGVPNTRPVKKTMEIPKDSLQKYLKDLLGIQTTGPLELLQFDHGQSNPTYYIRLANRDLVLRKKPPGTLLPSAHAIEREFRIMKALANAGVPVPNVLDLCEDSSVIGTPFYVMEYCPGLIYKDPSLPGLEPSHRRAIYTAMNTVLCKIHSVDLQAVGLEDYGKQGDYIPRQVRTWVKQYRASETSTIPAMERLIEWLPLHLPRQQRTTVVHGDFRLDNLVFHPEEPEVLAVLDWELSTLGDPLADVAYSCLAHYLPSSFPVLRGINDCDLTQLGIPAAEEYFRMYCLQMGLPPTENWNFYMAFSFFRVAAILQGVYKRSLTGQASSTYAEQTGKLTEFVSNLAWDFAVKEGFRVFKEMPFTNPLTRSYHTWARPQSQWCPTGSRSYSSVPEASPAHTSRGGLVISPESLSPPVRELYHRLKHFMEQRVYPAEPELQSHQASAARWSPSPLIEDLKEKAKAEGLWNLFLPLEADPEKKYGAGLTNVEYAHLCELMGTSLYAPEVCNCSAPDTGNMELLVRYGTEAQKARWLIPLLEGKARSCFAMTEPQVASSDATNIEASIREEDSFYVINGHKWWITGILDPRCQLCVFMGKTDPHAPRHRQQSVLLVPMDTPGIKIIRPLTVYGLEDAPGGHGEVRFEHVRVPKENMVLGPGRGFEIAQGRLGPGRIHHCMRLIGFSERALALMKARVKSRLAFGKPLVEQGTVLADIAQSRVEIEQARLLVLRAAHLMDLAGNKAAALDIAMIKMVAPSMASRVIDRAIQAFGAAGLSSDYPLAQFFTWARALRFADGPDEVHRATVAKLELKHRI

[4] = biological target: Protein kinase C alpha type (Homo sapiens, UniProt P17252)
[5] = biological target: T4, ATP-dependent RNA helicase DDX42 (Homo sapiens, UniProt Q86XP3)
T4 sequence (Q86XP3 whole entry): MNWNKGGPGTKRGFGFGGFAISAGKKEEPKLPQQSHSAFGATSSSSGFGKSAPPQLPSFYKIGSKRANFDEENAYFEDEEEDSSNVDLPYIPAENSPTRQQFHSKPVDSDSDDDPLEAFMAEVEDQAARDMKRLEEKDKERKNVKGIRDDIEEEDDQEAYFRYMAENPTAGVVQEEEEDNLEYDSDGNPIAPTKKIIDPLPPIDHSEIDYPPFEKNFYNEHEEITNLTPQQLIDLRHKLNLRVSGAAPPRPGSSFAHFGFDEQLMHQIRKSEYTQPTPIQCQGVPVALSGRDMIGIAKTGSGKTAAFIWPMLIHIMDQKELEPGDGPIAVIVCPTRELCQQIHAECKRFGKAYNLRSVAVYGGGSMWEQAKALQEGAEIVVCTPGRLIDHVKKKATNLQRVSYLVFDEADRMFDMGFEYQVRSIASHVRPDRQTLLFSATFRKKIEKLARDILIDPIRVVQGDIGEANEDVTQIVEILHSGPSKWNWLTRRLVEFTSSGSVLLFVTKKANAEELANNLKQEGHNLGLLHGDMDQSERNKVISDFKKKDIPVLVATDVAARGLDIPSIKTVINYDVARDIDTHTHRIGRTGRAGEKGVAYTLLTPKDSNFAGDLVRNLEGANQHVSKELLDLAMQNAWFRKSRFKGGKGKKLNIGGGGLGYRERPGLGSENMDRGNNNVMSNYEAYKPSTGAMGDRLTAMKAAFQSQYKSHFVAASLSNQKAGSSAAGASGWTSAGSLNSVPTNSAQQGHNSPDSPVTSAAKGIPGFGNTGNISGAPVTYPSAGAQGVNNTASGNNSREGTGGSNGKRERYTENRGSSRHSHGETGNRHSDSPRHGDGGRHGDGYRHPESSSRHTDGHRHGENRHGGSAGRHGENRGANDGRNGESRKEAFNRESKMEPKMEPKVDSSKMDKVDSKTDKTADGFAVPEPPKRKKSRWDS
Note: in the data inactive means no Kd found up to 30 µM.

O=c1[nH]c([C@@H]2CCCN2)nc2c1oc1ccc(Cl)cc12
Kd (dCTP pyrophosphatase 1): > 30 µM (inactive) | Kd [1]: > 30 µM (inactive) | Kd [2]: > 30 µM (inactive) | Kd [3]: > 30 µM (inactive) | Kd [4]: > 30 µM (inactive) | Kd [5]: > 30 µM (inactive)

Cn1cc(-c2[nH]c3cc(NC(=O)[C@H](N)C4CCCCC4)cc4c3c2C=NNC4=O)cn1
Kd (dCTP pyrophosphatase 1): > 30 µM (inactive) | Kd [1]: > 30 µM (inactive) | Kd [2]: > 30 µM (inactive) | Kd [3]: > 30 µM (inactive) | Kd [4]: > 30 µM (inactive) | Kd [5]: > 30 µM (inactive)

CCN1CCN(Cc2ccc(Nc3ncc(F)c(-c4cc(F)c5nc(C)n(C(C)C)c5c4)n3)nc2)CC1 [ABEMACICLIB]
Kd (dCTP pyrophosphatase 1): > 30 µM (inactive) | Kd [1]: > 30 µM (inactive) | Kd [2]: > 30 µM (inactive) | Kd [4]: 0.53 µM (active) | Kd [5]: > 30 µM (inactive)

C=CCn1c(=O)c2cnc(Nc3ccc(N4CCN(C)CC4)cc3)nc2n1-c1cccc(C(C)(C)O)n1 [ADAVOSERTIB]
Kd (dCTP pyrophosphatase 1): > 30 µM (inactive) | Kd [1]: > 30 µM (inactive) | Kd [2]: > 30 µM (inactive) | Kd [3]: > 30 µM (inactive) | Kd [4]: > 30 µM (inactive) | Kd [5]: > 30 µM (inactive)

CCc1cc2c(cc1N1CCC(N3CCOCC3)CC1)C(C)(C)c1[nH]c3cc(C#N)ccc3c1C2=O [ALECTINIB]
Kd (dCTP pyrophosphatase 1): > 30 µM (inactive) | Kd [1]: > 30 µM (inactive) | Kd [2]: > 30 µM (inactive) | Kd [3]: > 30 µM (inactive) | Kd [4]: > 30 µM (inactive) | Kd [5]: > 30 µM (inactive)

S=C(NCc1ccc2c(c1)OCO2)N1CCN(c2ncnc3c2oc2ccccc23)CC1 [AMUVATINIB]
Kd (dCTP pyrophosphatase 1): > 30 µM (inactive) | Kd [1]: > 30 µM (inactive) | Kd [2]: > 30 µM (inactive) | Kd [3]: > 30 µM (inactive) | Kd [4]: > 30 µM (inactive) | Kd [5]: > 30 µM (inactive)

NC[C@@](O)(c1ccc(Cl)cc1)c1ccc(-c2cn[nH]c2)cc1 [AT-13148]
Kd (dCTP pyrophosphatase 1): > 30 µM (inactive) | Kd [1]: > 30 µM (inactive) | Kd [2]: > 30 µM (inactive) | Kd [3]: > 30 µM (inactive) | Kd [4]: > 30 µM (inactive) | Kd [5]: > 30 µM (inactive)

Cc1cc(Nc2nc(N[C@@H](C)c3ncc(F)cn3)ncc2Cl)n[nH]1 [AZD-1480]
Kd (dCTP pyrophosphatase 1): > 30 µM (inactive) | Kd [1]: > 30 µM (inactive) | Kd [2]: > 30 µM (inactive) | Kd [3]: > 30 µM (inactive) | Kd [4]: > 30 µM (inactive) | Kd [5]: > 30 µM (inactive)

CCN(CCCOc1ccc2c(Nc3cc(CC(=O)Nc4cccc(F)c4)n[nH]3)ncnc2c1)CCOP(=O)(O)O [BARASERTIB]
Kd (dCTP pyrophosphatase 1): > 30 µM (inactive) | Kd [1]: > 30 µM (inactive) | Kd [2]: > 30 µM (inactive) | Kd [3]: > 30 µM (inactive) | Kd [4]: > 30 µM (inactive) | Kd [5]: > 30 µM (inactive)

COc1ccc(-c2ccc3ncc4c(c3c2)n(-c2ccc(N3CCNCC3)c(C(F)(F)F)c2)c(=O)n4C)cn1 [BGT-226 FREE BASE]
Kd (dCTP pyrophosphatase 1): > 30 µM (inactive) | Kd [1]: > 30 µM (inactive) | Kd [2]: > 30 µM (inactive) | Kd [3]: > 30 µM (inactive) | Kd [4]: > 30 µM (inactive) | Kd [5]: > 30 µM (inactive)

COc1cccc(Nc2ncnn3ccc(CN4CC[C@@H](N)[C@H](O)C4)c23)c1 [BMS-690514]
Kd (dCTP pyrophosphatase 1): > 30 µM (inactive) | Kd [1]: > 30 µM (inactive) | Kd [2]: > 30 µM (inactive) | Kd [3]: > 30 µM (inactive) | Kd [4]: 1.56 µM (active) | Kd [5]: > 30 µM (inactive)

C[C@@]1(C(=O)Nc2ccc(F)nc2)CCCN1c1nc(Nc2cc(C3CC3)n[nH]2)c2cccn2n1 [BMS-754807]
Kd (dCTP pyrophosphatase 1): > 30 µM (inactive) | Kd [1]: > 30 µM (inactive) | Kd [2]: > 30 µM (inactive) | Kd [3]: > 30 µM (inactive) | Kd [4]: > 30 µM (inactive) | Kd [5]: > 30 µM (inactive)

CCOc1ccn(-c2ccc(F)cc2)c(=O)c1C(=O)Nc1ccc(Oc2ccnc(N)c2Cl)c(F)c1 [BMS-777607]
Kd (dCTP pyrophosphatase 1): > 30 µM (inactive) | Kd [1]: > 30 µM (inactive) | Kd [2]: > 30 µM (inactive) | Kd [3]: > 30 µM (inactive) | Kd [4]: > 30 µM (inactive) | Kd [5]: > 30 µM (inactive)

COc1cc2nccc(Oc3ccc(NC(=O)C4(C(=O)Nc5ccc(F)cc5)CC4)cc3)c2cc1OC [CABOZANTINIB]
Kd (dCTP pyrophosphatase 1): > 30 µM (inactive) | Kd [1]: > 30 µM (inactive) | Kd [2]: > 30 µM (inactive) | Kd [3]: > 30 µM (inactive) | Kd [4]: > 30 µM (inactive) | Kd [5]: > 30 µM (inactive)

COc1cc2c(Oc3ccc4[nH]c(C)cc4c3F)ncnc2cc1OCCCN1CCCC1 [CEDIRANIB]
Kd (dCTP pyrophosphatase 1): > 30 µM (inactive) | Kd [1]: > 30 µM (inactive) | Kd [2]: > 30 µM (inactive) | Kd [3]: > 30 µM (inactive) | Kd [4]: > 30 µM (inactive) | Kd [5]: > 30 µM (inactive)

CC1(COc2ccc3c(c2)ncn3-c2ccc3cccc(N4CCC(N)CC4)c3n2)COC1 [CRENOLANIB]
Kd (dCTP pyrophosphatase 1): > 30 µM (inactive) | Kd [1]: > 30 µM (inactive) | Kd [2]: > 30 µM (inactive) | Kd [3]: > 30 µM (inactive) | Kd [4]: > 30 µM (inactive) | Kd [5]: > 30 µM (inactive)

CC(C)(O)CC(=O)NCCn1ccc2ncnc(Nc3ccc(Oc4cccc(C(F)(F)F)c4)c(Cl)c3)c21 [TAK-285]
Kd (dCTP pyrophosphatase 1): > 30 µM (inactive) | Kd [1]: > 30 µM (inactive) | Kd [2]: > 30 µM (inactive) | Kd [4]: > 30 µM (inactive) | Kd [5]: > 30 µM (inactive)

C[C@@H]1COC(Nc2ccc3ncnc(Nc4ccc(OCc5nccs5)c(Cl)c4)c3c2)=N1 [VARLITINIB]
Kd (dCTP pyrophosphatase 1): > 30 µM (inactive) | Kd [1]: > 30 µM (inactive) | Kd [2]: > 30 µM (inactive) | Kd [4]: > 30 µM (inactive) | Kd [5]: > 30 µM (inactive)

COc1cc2ncnc(Nc3ccc(O)cc3)c2cc1OC [WHI-P131]
Kd (dCTP pyrophosphatase 1): > 30 µM (inactive) | Kd [1]: > 30 µM (inactive) | Kd [2]: > 30 µM (inactive) | Kd [4]: > 30 µM (inactive) | Kd [5]: > 30 µM (inactive)
